# Tested on: human C3A liver cell cultures
# Assay: Microarray differential expression of cDNAs in treated human C3A liver cell cultures
# Type: cell-based
# Conditions: change vs untreated C3A cells
# Description: Incyte clones represent template sequences derived from the LIFESEQ GOLD assembled human sequence database (Incyte Genomics). In cases where more than one clone was available for a particular template, the 5′-most clone in the template was used on the microarray. The GENEALBUM GEM series 1-6 microarrays (Incyte Genomics) contain 52,616 array elements which represent 17,472 annotated clusters and 35,144 unannotated clusters. The HUMAN GENOME GEM series 1-3 microarrays (Incyte Genomics) contain 28,626 array elements which represent 10,068 annotated clusters and 18,558 unannotated clusters. For the UNIGEM series microarrays (Incyte Genomics), Incyte clones were mapped to non-redundant Unigene clusters (Unigene database (build 46), NCBI; Shuler (1997) J Mol Med 75:694-698), and the 5′ clone with the strongest BLAST alignment (at least 90% identity and 100 bp overlap) was chosen, verified, and used in the construction of the microarray. The UNIGEM V microarray (Incyte Genomics) contains 7075 array elements which represent 4610 annotated genes and 2,184 unannotated clusters.
# To construct microarrays, cDNAs were amplified from bacterial cells using primers complementary to vector sequences flanking the cDNA insert. […] Amplified cDNAs were then purified using […]-400 columns (APB). Purified cDNAs were immobilized on polymer-coated glass slides. Glass microscope slides (Corning, Corning N.Y.) were cleaned by ultrasound in 0.1% SDS and acetone, with extensive distilled water washes between and after treatments. Glass slides were etched in 4% hydrofluoric acid (VWR Scientific Products, West Chester Pa.), washed thoroughly in distilled water, and coated with 0.05% aminopropyl silane (Sigma Aldrich) in 95% ethanol. Coated slides were cured in a 110° C. oven. cDNAs were applied to the coated glass substrate using a procedure described in U.S. Pat. No. 5,807,522. One microliter of the cDNA at an average concentration of 100 ng/ul was loaded into the open capillary printing element by a high-speed robotic apparatus which then deposited about 5 nl of cDNA per slide.
# Microarrays were UV-crosslinked using a […] UV-crosslinker (Stratagene), and then washed at room temperature once in 0.2% SDS and three times in distilled water. Non-specific binding sites were blocked by incubation of microarrays in 0.2% casein in phosphate buffered saline (Tropix, Bedford Mass.) for 30 minutes at 60° C. followed by washes in 0.2% SDS and distilled water as before.
# Early confluent C3A cells (ATTC, Manassas Va.) were treated with captopril (0.5, 2, 48, and 60 μg/ml) for 1, 3, and 6 hours. Early confluent C3A cells were treated with enalapril (0.5, 2, 48, and 60 μg/ml) for 1, 3, and 6 hours. Early confluent C3A cells were treated with LY294002 (0.5, 2, 15, and 25 μg/ml) for 1, 3, and 6 hours. Early confluent C3A cells were starved of insulin for 3 days prior to treatment, then treated with LY294002 (10 μM) for 2, 24, 36, and 72 hours in the presence of insulin. Early confluent C3A cells were treated with DES (1, 10, and 100 μM) for 1, 3, and 6 hours. Early confluent C3A cells were treated with dexamethasone (1 and 20 μM) for 0, 2, 6, and 24 hours. Early confluent C3A cells were treated with MCA (0.5 and 10 μM) for 2, 6, and 24 hours. In all cases mRNA from untreated early confluent cells were prepared in parallel as described below.
# Cells were harvested and lysed in 1 ml of TRIZOL reagent (5×10^6 cells/ml; Life Technologies). The lysates were vortexed thoroughly and incubated at room temperature for 2-3 minutes and extracted with 0.5 ml chloroform. The extract was mixed, incubated at room temperature for 5 minutes, and centrifuged at 15,000 rpm for 15 minutes at 4° C. The aqueous layer was collected and an equal volume of isopropanol was added.
smiles,measurement,value
"CC(C)OC(=O)C(C)(C)Oc1ccc(C(=O)c2ccc(Cl)cc2)cc1 [Fenofibrate, fenofibrate]",expression level of cDNA clone 63038,−2.9
same,expression level of cDNA clone 280932,−2.67
same,expression level of cDNA clone 437481,2.44
same,expression level of cDNA clone 443991,2.47
same,expression level of cDNA clone 450856,2.49
same,expression level of cDNA clone 452321,3
same,expression level of cDNA clone 480791,−2.27
same,expression level of cDNA clone 630625,3.95
same,expression level of cDNA clone 970905,−4.06
same,expression level of cDNA clone 1315663,−4.02
same,expression level of cDNA clone 1619292,−5
same,expression level of cDNA clone 1705208,2.83
same,expression level of cDNA clone 1846463,6.58
same,expression level of cDNA clone 1969563,6.8
same,expression level of cDNA clone 1975268,−2.42
same,expression level of cDNA clone 2042056,5.46
same,expression level of cDNA clone 2055569,−3.12
same,expression level of cDNA clone 2055867,−3.4
same,expression level of cDNA clone 2123516,4.6
same,expression level of cDNA clone 2234853,−2.7
same,expression level of cDNA clone 2360580,−4.5
same,expression level of cDNA clone 2382195,−2.87
same,expression level of cDNA clone 2399162,−2.5
same,expression level of cDNA clone 2448149,−2.35
same,expression level of cDNA clone 2513883,4.47
same,expression level of cDNA clone 2607921,−3.2
same,expression level of cDNA clone 2757583,4.75
same,expression level of cDNA clone 2769888,−3.17
same,expression level of cDNA clone 2929484,−2.89
same,expression level of cDNA clone 2957205,2.44
same,expression level of cDNA clone 3222802,2.55
same,expression level of cDNA clone 3272165,−2.57
same,expression level of cDNA clone 4287327,−3.14
same,expression level of cDNA clone 4556538,2.53
